Reference: US20250360160A1, “NEW MEDICAL USE OF TAFOXIPARIN” (DILAFOR AB, priority 2022, published 2025)

Columns and labels:
factor IIa = experiment: antifactor IIa activity; type: biochemical; conditions: definition of tafoxiparin
anticoagulant activity = conditions: definition of DF01

factor IIa, sequence (P01008 33-464): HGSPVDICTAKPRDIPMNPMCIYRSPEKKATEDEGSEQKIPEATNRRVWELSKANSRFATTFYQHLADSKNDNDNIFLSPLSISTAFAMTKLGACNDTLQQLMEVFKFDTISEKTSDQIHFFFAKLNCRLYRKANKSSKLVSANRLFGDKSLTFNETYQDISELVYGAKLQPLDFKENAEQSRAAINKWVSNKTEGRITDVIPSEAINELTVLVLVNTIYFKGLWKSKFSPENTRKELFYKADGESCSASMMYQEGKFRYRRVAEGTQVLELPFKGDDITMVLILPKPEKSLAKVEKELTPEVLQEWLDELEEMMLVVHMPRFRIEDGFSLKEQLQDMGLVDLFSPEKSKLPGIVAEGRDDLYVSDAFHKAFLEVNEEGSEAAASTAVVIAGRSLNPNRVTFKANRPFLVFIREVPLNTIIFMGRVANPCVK

In the case of tafoxiparin, the “antifactor IIa activity” value (factor IIa) is reported as “less than 10 IU/mg” and the anticoagulant activity (anticoagulant activity) is reported as “essentially no anticoagulant activity”.
